Test results taken from patent US11547681B2, “N-acylethanolamide derivatives and uses thereof” (ELIEM THERAPEUTICS, INC., priority 2016, dated 2023).

Assay: Intestinal S9 fraction stability, mouse
Procedure: (§1) Reaction mixture, minus cofactors, was prepared as described below. Test article was added into the reaction mixture at a final concentration of 1 μM. […] An aliquot of the reaction mixture (without cofactor cocktail) was equilibrated in a shaking water bath at 37° C. for 3 minutes. The reaction was initiated by the addition of cofactor cocktail, and the mixture was incubated in a shaking water bath at 37° C. Aliquots (100 μL) were withdrawn at 0, 10, 20, 30, and 60 minutes. Test article samples were immediately combined with 300 μL of ice-cold acetonitrile containing 1% formic acid. Control samples were immediately combined with 400 μL of ice-cold 50/50 acetonitrile (ACN)/dH2O containing 0.1% formic acid and internal standard to terminate the reaction. Samples were then mixed and centrifuged to precipitate proteins. Calibration standards were prepared in matched matrix. Samples and standards were assayed by LC-MS/MS using electrospray ionization for both the dosed prodrug and the expected drug (PEA). Analytical conditions are outlined in Appendix 8-1. Test article concentration at each time point was compared to test article concentration at time 0 to determine the percent remaining at each time point. Halflives were calculated using GraphPad software, fitting to a single-phase exponential decay equation.
as §1, with “for 5” for “for 3”, “minutes. Reaction” for “minutes. The reaction”, “and” for “and the”, “both” for “both the”, “Appendix 10-1.” for “Appendix 8-1.”
Reaction mixture, minus cofactors, was prepared as described below. Test article was added into the reaction mixture at a final concentration of 1 μM. […] An aliquot of the reaction mixture (without cofactor cocktail) was equilibrated in a shaking water bath at 37° C. for 3 minutes. Reaction was initiated by the addition of cofactor cocktail, and the mixture was incubated in a shaking water bath at 37° C. Aliquots (100 μL) were withdrawn at 0, 10, 20, 30, and 60 minutes. Test article samples were immediately combined with 300 μL of ice-cold acetonitrile containing 1% formic acid. Control samples were immediately combined with 400 μL of ice-cold 50/50 acetonitrile (ACN)/dH2O containing 0.1% formic acid and internal standard to terminate the reaction. Samples were then mixed and centrifuged to precipitate proteins. Calibration standards were prepared in matched matrix. Samples and standards were assayed by LC-MS/MS using electrospray ionization for both dosed prodrug and expected drug (PEA). Analytical conditions are outlined in Appendix 13-1. Test article concentration at each time point was compared to test article concentration at time 0 to determine the percent remaining at each time point. Halflives were calculated using GraphPad software, fitting to a single-phase exponential decay equation.

[1] = control compound, mouse intestinal S9 fraction

In the case of `C[C@]12CC[C@H]3[C@@H](CCC4=CC(=O)CC[C@@]43C)[C@@H]1CC[C@@H]2O` [Testosterone, testosterone, reference compound], the CLin [1] is reported as less than 0.0116 ml/min/mg protein, the “CLin, calculated value in parentheses” value [1] is reported as 0.00767 ml/min/mg protein and the microsomal CLint (male, CD-1, mouse, s9, CLint (ml/min/mg protein), calculated value in parentheses, control compound, mouse intestinal S9 fraction, calculated value beyond duration of experiment) is reported as 9.19 µL/min/mg. The microsomal CLint (male, CD-1, mouse, s9, CLint (ml/min/mg protein), control compound, mouse intestinal S9 fraction) was less than 11.6 µL/min/mg, the microsomal CLint (male, CD-1, mouse, s9, CLint, Control Compound, Mouse intestinal S9 fraction) was less than 11.6 µL/min/mg and the microsomal CLint (male, CD-1, mouse, s9, CLint, Mouse intestinal S9 fraction, control compound) was less than 11.6 µL/min/mg. The half-life (male, CD-1, mouse, s9, Half-life (min), calculated value in parentheses, control compound, mouse intestinal S9 fraction, calculated value beyond duration of experiment) was 1.25 h, the half-life (male, CD-1, mouse, s9, Half-life (min), control compound, mouse intestinal S9 fraction) was greater than 1 h and the half-life (male, CD-1, mouse, s9, Half-life, Control Compound, Mouse intestinal S9 fraction) was greater than 1 h. For the same compound, the half-life at 1 μM (male, CD-1, mouse, s9, Half-life, Mouse intestinal S9 fraction) was greater than 1 h, the half-life (male, CD-1, mouse, s9, Half-life, calculated value in parentheses, control compound, mouse intestinal S9 fraction) was 1.5 h and the half-life (male, CD-1, mouse, s9, Half-life, control compound, mouse intestinal S9 fraction) was greater than 1 h.
